The values that follow come from PMC3993905 (2014).

The subject of the data set is MMP-2. The experiment in a line: active MMP-2. As to conditions: human, room temperature, up to 6 h.

Consider Ac-KKYGPQGIAGQYKK-NH2, for which the cleaved bond result is “G-I, 6 h”.

Regarding Ac-KKYIPVSLRSGYKK-NH2, the cleaved bond result is listed as “S-L, 6 h”.
